Test results: patent US20240124501A1, “VANADIUM COMPOUNDS AND METHODS OF MAKING AND USING THEREOF” (priority 2022, published 2024)
Several values for one entry are separate records, joined by “and”; a condition that tells them apart may be missing. Equal values may be shown once. Read-outs that look alike come from different tables or passages of the source.

How the values were obtained:
[1] = system: T98 g cells (human glioblastoma multiforme); assay: IC50 for 72 h treatments with fresh vanadium(V) compounds in T98 g cells (Example 7); type: cell-based; details: 72 h treatment, each measurement reported, read-out: IC50 Value(s) (converted)
Procedure: (§1) Cell Culture and Growth Conditions. The well-established human glioblastoma multiforme cell line (T98 g) and human foreskin fibroblast (HFF-1) cell lines were purchased from American Type Culture Collection (ATCC, cat. no. CRL-1690 and SCRC-1041). Due to their limited life span in culture, HFF-1 cells were used at passages four to six. The cells were cultured in Advanced DMEM (Thermo Fisher Scientific cat. no. 12491-015), supplemented with L-glutamine (2.0 mM), antibiotic-antimycotic mixture (100 U mL^−1 penicillin, […] streptomycin, and […] amphotericin B), and fetal calf serum (FCS; heat-inactivated; 2% vol). For proliferation and cytotoxicity experiments, cells were seeded in 96-well plates at an initial density of 1.5×10^3 viable cells per well in 100 μL medium and left to attach overnight.
(§2) Freshly prepared stock solutions of V(V) complexes (10 mM in DMSO) were used for cell assays. […] Stock solutions of the treatment complexes were diluted with fully supplemented cell culture media to the required final concentrations, and the resultant media were either added to the cells within 1 min (fresh solutions) or left in cell culture incubator (310 K, 5% CO2) for 24 h prior to the cell treatments (aged solutions).
(§3) Each treatment included six replicate wells with cells and two background wells without cells that contained the same components. After the addition of treatment complexes, the plates were incubated for 72 h at 310 K and 5% CO2, then MTT reagent [1-(4,5-dimethylthiazol-2-yl)-3,5-diphenylformazan, Sigma M5655] was added (50 μL per well of freshly prepared 2.0 mg/mL solution in complete medium), and incubation was continued for 4-6 h. After that, the medium was removed, the blue formazan crystals were dissolved in 0.10 mL per well of DMSO, and the absorbance at 600 nm was measured using a Victor V3 plate reader. Typically, the treatment complexes were applied in a series of nine two-fold dilutions, starting from (100±20) M V, plus the vehicle control. Exact V concentrations in the assays were verified by ICP-MS measurements using samples of cell culture media and used in the calculations of the IC50 values. Fitting of the experimental data and calculations of the IC50 values were performed using Origin 6.1 software (Microcal Origin, 1999). For all the cell assays, consistent results were obtained in at least two independent experiments using different passages of cells and varying stock solutions of the treatment complexes.
In cases where multiple measurements were performed, the value determined for each measurement are reported.

[2] = system: T98g (human glioblastoma cells); assay: Anti-proliferative activity, MTT assay, T98g cells (Example 5); type: cell-based; details: read-out: IC50 (T98g), condition (B)
[3] = system: HFF-1 (non-cancer human fibroblasts); assay: Anti-proliferative activity, MTT assay, HFF-1 cells (Example 5)
[4] = system: Mycobacterium smegmatis (M. smeg); assay: Growth inhibition of M. smeg (MIC/IC50 measurement); type: cell-based, Mycobacterium smegmatis mc^2 155; details: Mycolicibacterium smegmatis; M. smeg in 7H9 media, 24 h at 37° C., OD600; mean and SD of triplicate
Procedure: Cell Culture and Growth Conditions. M. smeg was cultured in Middlebrook 7H9 medium (Ref. no. 271310; Difco) supplemented with 10% OAD (oleic acid, albumin, dextrose), 0.2% (v/v) glycerol, and […], and incubated with shaking for 24 h at 37° C. M. smeg was grown to a mid-logarithmic growth phase assessed via spectrophotometry and occurred at an optical density of 0.6 at 600 nm (OD600). In some experiments where M. smeg was treated with vanadium complexes, the cell culture supernatant was collected for ^51V NMR studies.
Minimum Inhibitory Concentration (MIC) Measurements. The inhibitory activity of the tested compounds was determined by measuring the lowest concentration that caused bacterial growth inhibition of 50% (IC50). M. smeg was grown to the mid-log phase of 0.6-0.8 at OD600. The final concentrations of the compounds used in these studies were obtained using serial dilutions to a final concentration range of 2 to 0.0039 mM and placed with M. smeg in 7H9 media into a 96-well plate. Plates were incubated for 24 h at 37° C. A Bio-Rad Benchmark Reader (Bio-Rad Laboratories: Hercules, CA, USA) was used to check the cell viability at OD600 at appropriate times. IC50 was determined to be the lowest concentration of complexes that inhibited M. smeg growth by 50%.
Statistical Analysis. For each treatment, data were represented as the mean and standard deviation of the IC50 from triplicate measurements. The IC50 was calculated using GraFit 5 data analysis software (version 5.0.13). • Chemistry
Preparation of Stock Solutions for Cell Culture Experiments. A 20 mM stock solution of each respective V-complex and its free ligands was prepared in DMSO and diluted with 7H9 media to a concentration of 2.0 mM for biological studies.

[5] = system: HFF-1 (human foreskin fibroblasts); assay: Cytotoxicity, MTT assay, HFF-1 cells (Example 4); type: cell-based; details: 72 h treatment; mixed with medium ~1 min before treatment; read-out: IC50 HFF-1 (fresh)
Procedure: as §1, with “µL” for “μL”
Freshly prepared stock solutions of V(V) complexes (10 mM in DMSO) were used for cell assays. […]
Each treatment included six replicate wells with cells and two background wells without cells that contained the same components. […] After that, the medium was removed, the blue formazan crystals were dissolved in 0.10 mL per well of DMSO, and the absorbance at 600 nm was measured using a Victor V3 plate reader. […]

[6] = system: T98g cells (human glioblastoma multiforme); assay: Antiproliferative activity, MTT assay, T98g cells (Example 4); type: cell-based; details: 72 h treatment
Procedure: as §1, with “µL” for “μL”
as §2
as §3, with “(100±20) μM” for “(100±20) M”

T98g cells = assay: V uptake by T98g cells (ICPMS); type: cell-based, human; details: 30 min treatment with 100 μM of freshly diluted V complexes
Procedure: For V uptake experiments, T98 g cells were grown to ˜80% confluence in 12-well plates (three replicates per treatment). […] After that, V-containing media were removed, the cell layers were washed twice with phosphate buffered saline (PBS), detached with TrypLE solution (Thermo Fisher Scientific Cat. No. 12605028), pelleted, and washed again with PBS. Detachment and washing of cell pellets were used to remove V that was absorbed on the culture plates and on the cell surface. Cell numbers in each pellet were counted with a Countess automatic counter, typical numbers were (5±1)×10^5 cells/well, cell viability was >95% (Trypan blue staining). Cell pellets were digested with 0.20 mL of 65% HNO3 (trace pure, Merck 225711) for 3 d at 295 K, then diluted with Milli-Q water to 1.0 mL for ICPMS analysis. The analysis was performed with a Perkin-Elmer Nexion 350× spectrometer, using a standard V(IV) solution (Choice Analytical, Australia) and 193Ir peak as an internal standard. The measurements were performed in kinetic energy discrimination (KED) mode to eliminate the interference of [^35Cl^16O]^+ ions with the determination of ^51V^+. Cellular V concentrations were expressed in atoms V per cell. For all the cell assays, consistent results were obtained in at least two independent experiments, using different passages of cells and different stock solutions of the treatment compounds.

[7] = complexes mixed with cell culture medium ~1 min (295K) before treatment, read-out: IC50 T98g (fresh)
[8] = pre-incubated with cell culture medium 24 h at 310K, 5% CO2, read-out: IC50 T98g (aged)

Compound: CCOc1cccc2c1[O][V]1(=[O])([O]c3cc(C45CC6CC(CC(C6)C4)C5)cc(C(C)(C)C)c3[O]1)[N](CCO)CCN=C2
- IC50 [1]: 2.1 ± 0.3 µM

Compound: CCOc1cccc2c1[O][V]1(=[O])([O]c3cc(C45CC6CC(CC(C6)C4)C5)cc(C45CC6CC(CC(C6)C4)C5)c3[O]1)[N](CCO)CCN=C2
- IC50 [1]: 3.3 ± 0.4 µM

Compound: CC(C)(C)c1cc(O)c(O)c(C(C)(C)C)c1 [H2dtb, 3,5-di-tert-butylcatechol]
- IC50 [2]: 15 ± 3 µM
- IC50 ([3]; Homo sapiens, HFF-1, read-out: IC50 (HFF-1), condition (B)): 24 ± 2 µM
- IC50 [4]: 241 ± 0.07 µM

Compound: CC(C)(C)c1cc2c(c(C34CC5CC(CC(C5)C3)C4)c1)[O][V]1(=[O])([O]c3ccccc3C=NCC[N]1CCO)[O]2
- IC50 [1]: 9.3 ± 2.1 µM

Compound: CC(C)(C)c1cccc2c1[O][V]1(=[O])([O]c3cc(C45CC6CC(CC(C6)C4)C5)cc(C45CC6CC(CC(C6)C4)C5)c3[O]1)[N](CCO)CCN=C2
- IC50 [1]: 5.3 ± 1.6 µM

Compound: CCOc1cccc2c1[O][V]1(=[O])([O]c3cc(C(C)(C)C)cc(C(C)(C)C)c3[O]1)[N](CCO)CCN=C2
- IC50 [1]: 2.4 ± 0.3 µM

Compound: N.N.[Cl][Pt][Cl] [cisplatin]
- IC50 [5]: 45 ± 4 µM
- IC50 [6, 7]: 33 ± 1 µM
- IC50 [6, 8]: > 50 µM

Compound: CC(C)(C)c1cc2c(c(C34CC5CC(CC(C5)C3)C4)c1)[O][V]1(=[O])([O]c3ccc(Cl)cc3C=NCC[N]1CCO)[O]2
- IC50 [1]: 3.4 ± 0.2 µM

Compound: CC(C)(C)c1cc2c(c(C(C)(C)C)c1)[O][V]1(=[O])([O]c3cc4ccc(=O)oc4cc3[O]1)[N](CCO)CCN=C2
- IC50 [1]: 4.2 µM and 6.9 µM

Compound: CCOc1cccc2c1[O][V]1(=[O])([O]c3cc(C45CC6CC(CC(C6)C4)C5)cc(C)c3[O]1)[N](CCO)CCN=C2
- IC50 [1]: 14 ± 2 µM

Compound: Oc1ccccc1O [H2cat, catechol]
- IC50 [4]: 109 ± 0.05 µM

Compound: COc1cccc(O)c1O [H23OMet, 3-methoxy catechol]
- IC50 [4]: 262 ± 0.15 µM

Compound: [Na+].[Na+].[Na+].[O]=[V]([O-])([O-])[O-] [Na3VO4]
- IC50 [5]: 23 ± 3 µM
- viability of HFF-1 cells compared with the vehicle control ([3]; subtoxic concentrations, not seen in T98g): 120-140%
- Uptake (T98g) of V (T98g cells): (3.3 ± 0.8) × 10^7 atoms per cell
- IC50 [6, 7]: ~40 µM and 26 µM
- IC50 [6, 8]: 24 ± 4 µM

Compound: Oc1c(O)c(Br)c(Br)c(Br)c1Br [H2tbc, tetrabromocatechol]
- IC50 [4]: 416 ± 0.19 µM

Compound: [O]=[V]12([O]c3ccc(Cl)cc3C=NCC[N]1CCO)[O]c1cc(C34CC5CC(CC(C5)C3)C4)cc(C34CC5CC(CC(C5)C3)C4)c1[O]2
- IC50 [1]: 11 ± 1 µM

Compound: O=[N+]([O-])c1ccc(O)c(O)c1 [H24NO2, 4-nitrocatechol]
- IC50 [4]: 610 ± 0.05 µM

Compound: N#Cc1ccc(O)c(O)c1 [H2CN, 3,4-dihydroxybenzonitrile]
- IC50 [4]: 447 ± 0.04 µM

Compound: O=c1ccc2cc(O)c(O)cc2o1 [H2Coum, 6,7-dihydroxycoumarin]
- IC50 [4]: 506 ± 0.28 µM
